From patent US10584128B2, “Bicyclic dihydropyrimidine-carboxamide derivatives as Rho-Kinase inhibitors” (CHIESI FARMACEUTICI S.p.A., priority 2016, dated 2020)

Experiments:
Rho kinase 1 = Rho kinase 1 (Homo sapiens, UniProt Q13464); test: In vitro Rho kinase inhibitory activity assay (ADP-Glo kit, Myelin Basic Protein substrate); type: biochemical; details: 10 μM ATP, 25° C., read-out: ROCK1 inhibitory activity (Ki, range of activity)
Procedure: (§1) The effectiveness of compounds of the present invention to inhibit Rho kinase activity can be determined in a 10 μl assay containing 40 mM Tris pH7.5, 20 mM MgCl2 0.1 mg/ml BSA, 50 μM DTT and 2.5 μM peptide substrate (Myelin Basic Protein) using an ADP-Glo kit (Promega). Compounds were dissolved in DMSO such that the final concentration of DMSO was 1% in the assay. All reactions/incubations are performed at 25° C. Compound (2 ul) and either Rho kinase 1 or 2 (4 μl) were mixed and incubated for 30 mins. Reactions were initiated by addition of ATP (4 μl) such that the final concentration of ATP in the assay was 10 μM. After a 1 hour incubation 10 μl of ADP-Glo Reagent was added and after a further 45 minute incubation 20 ul of Kinase Detection Buffer was added and the mixture incubated for a further 30 minutes. The luminescent signal was measured on a luminometer. […] Compounds were tested in dose-response format and the inhibition of kinase activity was calculated at each concentration of compound. To determine the IC50 (concentration of compound required to inhibit 50% of the enzyme activity) data were fit to a plot of % inhibition vs Log10 compound concentration using a sigmoidal fit with a variable slope and fixing the maximum to 100% and the minimum to 0%. To determine the Ki values the Cheng-Prusoff equation was utilized (Ki=IC50/(1+[S]/Km).

Rho kinase 2 = Rho kinase 2 (Homo sapiens, UniProt O75116); test: as above; type: biochemical; details: 10 μM ATP, 25° C., read-out: ROCK2 inhibitory activity (Ki, range of activity)
Sequence of Rho kinase 2 (O75116 whole entry): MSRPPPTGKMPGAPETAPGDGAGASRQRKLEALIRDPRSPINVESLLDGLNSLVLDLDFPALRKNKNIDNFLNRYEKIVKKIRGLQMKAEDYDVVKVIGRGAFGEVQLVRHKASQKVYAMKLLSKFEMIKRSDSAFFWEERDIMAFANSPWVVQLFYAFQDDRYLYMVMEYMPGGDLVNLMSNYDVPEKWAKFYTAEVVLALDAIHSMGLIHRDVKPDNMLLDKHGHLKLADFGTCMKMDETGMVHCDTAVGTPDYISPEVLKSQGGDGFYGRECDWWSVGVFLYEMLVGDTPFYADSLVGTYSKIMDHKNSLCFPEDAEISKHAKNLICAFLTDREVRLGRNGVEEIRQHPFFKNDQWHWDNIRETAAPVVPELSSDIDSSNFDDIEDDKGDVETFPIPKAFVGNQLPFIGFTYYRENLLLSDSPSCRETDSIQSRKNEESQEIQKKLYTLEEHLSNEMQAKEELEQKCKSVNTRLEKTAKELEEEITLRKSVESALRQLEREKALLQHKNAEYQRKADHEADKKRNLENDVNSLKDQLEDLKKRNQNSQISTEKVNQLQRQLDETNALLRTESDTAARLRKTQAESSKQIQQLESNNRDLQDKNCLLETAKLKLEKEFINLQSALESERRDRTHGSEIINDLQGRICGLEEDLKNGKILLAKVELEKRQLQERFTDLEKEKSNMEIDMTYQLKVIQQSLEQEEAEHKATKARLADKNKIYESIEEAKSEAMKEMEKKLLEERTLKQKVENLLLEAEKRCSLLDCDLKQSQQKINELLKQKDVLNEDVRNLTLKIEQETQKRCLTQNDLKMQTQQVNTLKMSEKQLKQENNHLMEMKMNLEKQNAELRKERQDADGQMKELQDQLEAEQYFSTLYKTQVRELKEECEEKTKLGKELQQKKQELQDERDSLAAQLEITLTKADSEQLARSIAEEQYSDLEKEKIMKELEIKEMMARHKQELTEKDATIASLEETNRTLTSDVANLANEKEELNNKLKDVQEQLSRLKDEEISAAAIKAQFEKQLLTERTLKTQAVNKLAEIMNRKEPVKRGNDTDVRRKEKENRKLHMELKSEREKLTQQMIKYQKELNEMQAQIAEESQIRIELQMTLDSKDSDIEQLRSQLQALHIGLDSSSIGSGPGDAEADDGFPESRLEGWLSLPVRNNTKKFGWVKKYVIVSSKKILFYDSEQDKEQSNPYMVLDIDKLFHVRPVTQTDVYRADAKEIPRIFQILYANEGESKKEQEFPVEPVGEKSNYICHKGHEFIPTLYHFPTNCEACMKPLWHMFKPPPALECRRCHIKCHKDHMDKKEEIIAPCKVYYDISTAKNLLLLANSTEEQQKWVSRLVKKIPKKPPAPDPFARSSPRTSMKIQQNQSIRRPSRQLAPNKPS
Procedure: as §1

Sequence of Rho kinase 1 (Q13464 whole entry): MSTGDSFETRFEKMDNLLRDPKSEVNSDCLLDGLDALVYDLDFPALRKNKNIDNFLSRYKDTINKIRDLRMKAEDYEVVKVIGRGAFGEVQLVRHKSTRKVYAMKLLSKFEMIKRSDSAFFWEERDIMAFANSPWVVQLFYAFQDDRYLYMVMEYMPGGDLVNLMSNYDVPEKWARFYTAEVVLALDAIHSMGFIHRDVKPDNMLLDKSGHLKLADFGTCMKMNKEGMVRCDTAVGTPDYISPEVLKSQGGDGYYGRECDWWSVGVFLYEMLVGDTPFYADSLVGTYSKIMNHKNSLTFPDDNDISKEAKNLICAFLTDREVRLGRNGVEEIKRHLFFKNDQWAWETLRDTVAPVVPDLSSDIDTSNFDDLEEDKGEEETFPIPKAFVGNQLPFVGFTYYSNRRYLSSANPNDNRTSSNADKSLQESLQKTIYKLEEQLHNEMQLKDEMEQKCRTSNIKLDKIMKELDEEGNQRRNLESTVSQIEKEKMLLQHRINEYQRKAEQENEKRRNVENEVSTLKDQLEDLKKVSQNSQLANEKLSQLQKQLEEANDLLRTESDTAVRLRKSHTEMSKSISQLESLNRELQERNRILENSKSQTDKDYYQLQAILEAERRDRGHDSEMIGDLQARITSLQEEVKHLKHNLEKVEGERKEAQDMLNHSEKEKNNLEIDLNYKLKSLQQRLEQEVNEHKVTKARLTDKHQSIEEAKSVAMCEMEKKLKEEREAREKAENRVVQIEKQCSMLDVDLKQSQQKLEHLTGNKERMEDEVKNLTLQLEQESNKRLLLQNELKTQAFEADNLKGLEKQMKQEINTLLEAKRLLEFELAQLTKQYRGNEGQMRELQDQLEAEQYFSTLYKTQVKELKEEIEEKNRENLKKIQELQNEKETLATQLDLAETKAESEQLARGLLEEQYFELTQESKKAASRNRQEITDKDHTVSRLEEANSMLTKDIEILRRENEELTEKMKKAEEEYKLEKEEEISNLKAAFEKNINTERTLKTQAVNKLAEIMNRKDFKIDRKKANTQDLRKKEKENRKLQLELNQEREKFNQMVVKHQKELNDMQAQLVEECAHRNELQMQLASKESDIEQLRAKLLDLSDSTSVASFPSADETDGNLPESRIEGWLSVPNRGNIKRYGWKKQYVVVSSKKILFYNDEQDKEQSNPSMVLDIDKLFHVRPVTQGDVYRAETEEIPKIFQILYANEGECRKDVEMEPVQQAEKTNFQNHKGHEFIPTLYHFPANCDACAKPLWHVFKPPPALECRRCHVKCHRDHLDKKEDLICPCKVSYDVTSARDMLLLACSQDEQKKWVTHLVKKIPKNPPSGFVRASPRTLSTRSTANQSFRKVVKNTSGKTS

Row | Ki (Rho kinase 1) | Ki (Rho kinase 2) | SMILES
1 | > 500 nM | > 500 nM | CCOC(=O)c1cc2n(n1)C(c1ccc(F)cc1)C(C(=O)Nc1ccc3[nH]ncc3c1)=C(C)N2 (single isomer, unassigned) [Example 4A, ethyl 6-((1H-indazol-5-yl)carbamoyl)-7-(4-fluorophenyl)-5-methyl-4,7-dihydropyrazolo[1,5-a]pyrimidine-2-carboxylate]
2 | < 50 nM | < 50 nM | CCOC(=O)c1cc2n(n1)C(c1ccc(F)cc1)C(C(=O)Nc1ccc3[nH]ncc3c1)=C(C)N2 (single isomer, unassigned) [Example 4B, ethyl 6-((1H-indazol-5-yl)carbamoyl)-7-(4-fluorophenyl)-5-methyl-4,7-dihydropyrazolo[1,5-a]pyrimidine-2-carboxylate]
3 | < 50 nM | < 50 nM | CCOC(=O)c1cc2n(n1)C(c1ccc(Cl)cc1F)C(C(=O)Nc1ccc3[nH]ncc3c1)=C(C)N2 (single isomer, unassigned) [Example 7B, ethyl 6-((1H-indazol-5-yl)carbamoyl)-7-(4-chloro-2-fluorophenyl)-5-methyl-4,7-dihydropyrazolo[1,5-a]pyrimidine-2-carboxylate]
4 | < 50 nM | < 50 nM | CC1=C(C(=O)Nc2ccc3[nH]ncc3c2)C(c2ccc(F)cc2)n2nnnc2N1 (single isomer, unassigned) [Example 23A, 7-(4-fluorophenyl)-N-(1H-indazol-5-yl)-5-methyl-4,7-dihydrotetrazolo[1,5-a]pyrimidine-6-carboxamide]
5 | 50 to 500 nM | 50 to 500 nM | CC1=C(C(=O)Nc2ccc3[nH]ncc3c2)C(c2ccc(F)cc2)n2nnnc2N1 (single isomer, unassigned) [Example 23B, 7-(4-fluorophenyl)-N-(1H-indazol-5-yl)-5-methyl-4,7-dihydrotetrazolo[1,5-a]pyrimidine-6-carboxamide]
6 | < 50 nM | < 50 nM | CC1=C(C(=O)Nc2ccc3[nH]ncc3c2)C(c2ccc(Cl)cc2)n2nnnc2N1 (single isomer, unassigned) [Example 24A, 7-(4-chlorophenyl)-N-(1H-indazol-5-yl)-5-methyl-4,7-dihydrotetrazolo[1,5-a]pyrimidine-6-carboxamide]
7 | 50 to 500 nM | 50 to 500 nM | CC1=C(C(=O)Nc2ccc3[nH]ncc3c2)C(c2ccc(Cl)cc2)n2nnnc2N1 (single isomer, unassigned) [Example 24B, 7-(4-chlorophenyl)-N-(1H-indazol-5-yl)-5-methyl-4,7-dihydrotetrazolo[1,5-a]pyrimidine-6-carboxamide]
8 | < 50 nM | < 50 nM | CC1=C(C(=O)Nc2ccc3[nH]ncc3c2)C(c2ccc(C(F)(F)F)c(F)c2)n2nnnc2N1 (single isomer, unassigned) [Example 25A, 7-(3-fluoro-4-(trifluoromethyl)phenyl)-N-(1H-indazol-5-yl)-5-methyl-4,7-dihydrotetrazolo[1,5-a]pyrimidine-6-carboxamide]
9 | 50 to 500 nM | 50 to 500 nM | CC1=C(C(=O)Nc2ccc3[nH]ncc3c2)C(c2ccc(C(F)(F)F)c(F)c2)n2nnnc2N1 (single isomer, unassigned) [Example 25B, 7-(3-fluoro-4-(trifluoromethyl)phenyl)-N-(1H-indazol-5-yl)-5-methyl-4,7-dihydrotetrazolo[1,5-a]pyrimidine-6-carboxamide]
10 | < 50 nM | < 50 nM | CC1=C(C(=O)Nc2ccc3[nH]ncc3c2)C(c2ccc(C(F)(F)F)cc2F)n2nnnc2N1 (single isomer, unassigned) [Example 26A, 7-(2-fluoro-4-(trifluoromethyl)phenyl)-N-(1H-indazol-5-yl)-5-methyl-4,7-dihydrotetrazolo[1,5-a]pyrimidine-6-carboxamide]
11 | 50 to 500 nM | 50 to 500 nM | CC1=C(C(=O)Nc2ccc3[nH]ncc3c2)C(c2ccc(C(F)(F)F)cc2F)n2nnnc2N1 (single isomer, unassigned) [Example 26B, 7-(2-fluoro-4-(trifluoromethyl)phenyl)-N-(1H-indazol-5-yl)-5-methyl-4,7-dihydrotetrazolo[1,5-a]pyrimidine-6-carboxamide]
12 | < 50 nM | < 50 nM | CC1=C(C(=O)Nc2ccc3[nH]ncc3c2)C(c2ccc(C(F)(F)F)cc2)n2nnnc2N1 (single isomer, unassigned) [Example 27A, N-(1H-indazol-5-yl)-5-methyl-7-(4-(trifluoromethyl)phenyl)-4,7-dihydrotetrazolo[1,5-a]pyrimidine-6-carboxamide]
13 | 50 to 500 nM | 50 to 500 nM | CC1=C(C(=O)Nc2ccc3[nH]ncc3c2)C(c2ccc(C(F)(F)F)cc2)n2nnnc2N1 (single isomer, unassigned) [Example 27B, N-(1H-indazol-5-yl)-5-methyl-7-(4-(trifluoromethyl)phenyl)-4,7-dihydrotetrazolo[1,5-a]pyrimidine-6-carboxamide]
14 | > 500 nM | > 500 nM | CC1=C(C(=O)Nc2ccc3[nH]ncc3c2)C(c2ccc(Cl)nc2)n2nc(C(F)(F)F)cc2N1 (single isomer, unassigned) [Example 32A, 7-(6-chloropyridin-3-yl)-N-(1H-indazol-5-yl)-5-methyl-2-(trifluoromethyl)-4,7-dihydropyrazolo[1,5-a]pyrimidine-6-carboxamide]
15 | < 50 nM | < 50 nM | CC1=C(C(=O)Nc2ccc3[nH]ncc3c2)C(c2ccc(Cl)nc2)n2nc(C(F)(F)F)cc2N1 (single isomer, unassigned) [Example 32B, 7-(6-chloropyridin-3-yl)-N-(1H-indazol-5-yl)-5-methyl-2-(trifluoromethyl)-4,7-dihydropyrazolo[1,5-a]pyrimidine-6-carboxamide]
16 | < 50 nM | < 50 nM | CC1=C(C(=O)Nc2cc3cn[nH]c3cc2F)C(c2ccc(C(F)(F)F)c(F)c2)n2nnnc2N1 (single isomer, unassigned) [Example 40A, N-(6-fluoro-1H-indazol-5-yl)-7-(3-fluoro-4-(trifluoromethyl)phenyl)-5-methyl-4,7-dihydrotetrazolo[1,5-a]pyrimidine-6-carboxamide]

The next lines start with the compound.

Row | SMILES | Ki (Rho kinase 1) | Ki (Rho kinase 2)
17 | CC1=C(C(=O)Nc2ccc3cnccc3c2)C(c2ccc(C(F)(F)F)c(F)c2)n2nc(C(=O)NCCN3CCCCC3)cc2N1 (single isomer, unassigned) [77A] | > 500 nM | > 500 nM
18 | CC1=C(C(=O)Nc2ccc3cnccc3c2)C(c2ccc(C(F)(F)F)c(F)c2)n2nc(C(=O)NCCN3CCCCC3)cc2N1 (single isomer, unassigned) [77B] | < 50 nM | < 50 nM
19 | CC1=C(C(=O)Nc2ccc3cnccc3c2)C(c2ccc(C(F)(F)F)c(F)c2)n2nc(N)cc2N1 (single isomer, unassigned) [130A] | > 500 nM | > 500 nM
20 | CC1=C(C(=O)Nc2ccc3cnccc3c2)C(c2ccc(C(F)(F)F)c(F)c2)n2nc(N)cc2N1 (single isomer, unassigned) [130B] | < 50 nM | < 50 nM
21 | CC1=C(C(=O)Nc2ccc3cnccc3c2)C(c2ccc(C(F)(F)F)c(F)c2)n2nc(NC(=O)CCN3CCCCC3)cc2N1 (single isomer, unassigned) [131A] | < 50 nM | < 50 nM
22 | CC1=C(C(=O)Nc2ccc3cnccc3c2)C(c2ccc(C(F)(F)F)c(F)c2)n2nc(NC(=O)CCN3CCCCC3)cc2N1 (single isomer, unassigned) [131B] |  | < 50 nM
23 | CC1=C(C(=O)Nc2ccc3cnccc3c2)C(c2ccc(C(F)(F)F)c(F)c2)n2nc(NC(=O)CN3CCCC3)cc2N1 (single isomer, unassigned) [132A] | < 50 nM | < 50 nM
24 | CC1=C(C(=O)Nc2ccc3cnccc3c2)C(c2ccc(C(F)(F)F)c(F)c2)n2nc(NC(=O)CN3CCCC3)cc2N1 (single isomer, unassigned) [132B] | > 500 nM | > 500 nM
25 | CC1=C(C(=O)Nc2ccc3cnccc3c2)C(c2ccc(C(F)(F)F)c(F)c2)n2nc(C3CCN(C(=O)CCN4CCCCC4)CC3)cc2N1 (single isomer, unassigned) [135A] | > 500 nM | > 500 nM
26 | CC1=C(C(=O)Nc2ccc3cnccc3c2)C(c2ccc(C(F)(F)F)c(F)c2)n2nc(C3CCN(C(=O)CCN4CCCCC4)CC3)cc2N1 (single isomer, unassigned) [135B] | < 50 nM | < 50 nM
27 | CCOC(=O)c1cc2n(n1)C(c1ccc(Cl)cc1F)C(C(=O)Nc1ccc3[nH]ncc3c1)=C(C)N2 (single isomer, unassigned) [Example 7A, ethyl 6-((1H-indazol-5-yl)carbamoyl)-7-(4-chloro-2-fluorophenyl)-5-methyl-4,7-dihydropyrazolo[1,5-a]pyrimidine-2-carboxylate] | < 50 nM | < 50 nM
28 | CC1=C(C(=O)Nc2ccc3cnccc3c2)C(c2ccc(C(F)(F)F)c(F)c2)n2nc(C(=O)NCCN3CCCCC3)nc2N1 (single isomer, unassigned) [Example 129b, 7-(3-fluoro-4-(trifluoromethyl)phenyl)-N6-(isoquinolin-6-yl)-5-methyl-N2-(2-(piperidin-1-yl)ethyl)-4,7-dihydro-[1,2,4]triazolo[1,5-a]pyrimidine-2,6-dicarboxamide] | < 50 nM | 
